Data taken from ChEMBL document CHEMBL1909046, “DrugMatrix in vitro pharmacology data”.

Columns and labels:
[1] = biological target: T1, Cytochrome P450 1A2 (Homo sapiens, UniProt P05177)
T1 sequence (P05177 whole entry): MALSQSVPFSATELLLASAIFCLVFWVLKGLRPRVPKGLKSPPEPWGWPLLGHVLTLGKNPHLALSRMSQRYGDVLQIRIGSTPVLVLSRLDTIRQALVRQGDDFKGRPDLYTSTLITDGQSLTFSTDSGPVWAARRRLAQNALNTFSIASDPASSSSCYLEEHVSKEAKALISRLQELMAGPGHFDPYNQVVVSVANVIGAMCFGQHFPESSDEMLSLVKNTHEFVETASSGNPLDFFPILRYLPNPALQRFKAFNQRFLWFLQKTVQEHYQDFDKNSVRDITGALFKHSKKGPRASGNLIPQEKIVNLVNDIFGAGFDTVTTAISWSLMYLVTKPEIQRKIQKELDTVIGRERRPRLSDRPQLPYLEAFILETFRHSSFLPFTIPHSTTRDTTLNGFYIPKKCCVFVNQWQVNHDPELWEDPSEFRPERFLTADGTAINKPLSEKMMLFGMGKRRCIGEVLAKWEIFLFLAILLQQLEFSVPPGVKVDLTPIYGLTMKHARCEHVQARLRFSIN

[2] = biological target: T2, Estrogen receptor (Homo sapiens, UniProt P03372); assay: biochemical
T2 sequence (P03372 whole entry): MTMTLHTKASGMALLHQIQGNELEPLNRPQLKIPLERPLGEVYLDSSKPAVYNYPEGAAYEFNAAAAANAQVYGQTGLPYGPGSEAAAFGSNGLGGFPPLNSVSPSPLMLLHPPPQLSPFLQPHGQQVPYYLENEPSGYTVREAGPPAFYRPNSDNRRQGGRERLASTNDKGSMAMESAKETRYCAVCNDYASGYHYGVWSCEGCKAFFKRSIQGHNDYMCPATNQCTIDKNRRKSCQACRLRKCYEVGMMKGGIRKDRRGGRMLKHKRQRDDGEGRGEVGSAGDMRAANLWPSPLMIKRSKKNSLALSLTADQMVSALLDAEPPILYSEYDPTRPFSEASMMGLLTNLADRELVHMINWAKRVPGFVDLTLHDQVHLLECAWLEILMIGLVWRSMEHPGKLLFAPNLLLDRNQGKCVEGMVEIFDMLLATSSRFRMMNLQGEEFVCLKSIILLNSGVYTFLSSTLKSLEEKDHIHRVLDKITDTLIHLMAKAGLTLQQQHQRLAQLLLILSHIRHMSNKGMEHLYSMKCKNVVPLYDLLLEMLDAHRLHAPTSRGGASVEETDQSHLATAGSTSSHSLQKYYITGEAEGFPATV

[3] = biological target: Cytochrome P450 2C9 (Homo sapiens, UniProt P11712)
Chain of Cytochrome P450 2C9 (P11712 whole entry): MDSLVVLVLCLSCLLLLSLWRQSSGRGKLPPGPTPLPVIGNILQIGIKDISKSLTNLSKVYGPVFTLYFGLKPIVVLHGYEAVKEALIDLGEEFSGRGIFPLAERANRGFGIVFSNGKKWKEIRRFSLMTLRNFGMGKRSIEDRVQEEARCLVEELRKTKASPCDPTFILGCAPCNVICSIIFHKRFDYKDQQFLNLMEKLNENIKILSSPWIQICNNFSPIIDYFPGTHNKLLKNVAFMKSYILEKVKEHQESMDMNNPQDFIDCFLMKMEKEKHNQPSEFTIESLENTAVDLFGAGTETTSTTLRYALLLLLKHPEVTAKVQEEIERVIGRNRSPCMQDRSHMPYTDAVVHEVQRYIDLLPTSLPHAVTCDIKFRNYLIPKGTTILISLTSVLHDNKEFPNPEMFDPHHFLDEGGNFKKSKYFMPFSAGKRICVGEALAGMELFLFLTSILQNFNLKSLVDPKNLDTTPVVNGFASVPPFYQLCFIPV

In the case of `Cc1[nH]cnc1CN1CCc2c(c3ccccc3n2C)C1=O` [ALOSETRON], the IC50 [1] is reported as 605 nM.
In the case of `CCCCCCCCCc1ccc(O)cc1` [4-NONYLPHENOL], the IC50 [2] is reported as 377 nM and the Ki [2] is reported as 108 nM.
For `c1ccc2c(c1)cc1ccc3cccc4ccc2c1c34`, the IC50 [1] was 40 nM.
Compound `O=C1CCc2cc(OCCCCc3nnnn3C3CCCCC3)ccc2N1` [CILOSTAZOL] has an IC50 [3] of 10000 nM.
